Experimental data as given in PubChem BioAssay (NCI).
“And” between values parts separate entries of the source, which are not always exact repeats. Identical values can stand only once.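 Cells were grown in 96-well plates and exposed to each compound for 48 hours at five concentrations; endpoints were interpolated linearly between bracketing concentrations, or set to the highest concentration if not reached. Here, GI50 denotes the concentration required for 50% inhibition of growth. The concentration for full growth arrest is given as TGI.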

Tests used:
Assay in all cases: NCI tumour cell line growth inhibition, 48 h
COLO 205 colon = test system: COLO 205 colon
DLD-1 colon = test system: DLD-1 colon
HOP-92 NSCLC = test system: HOP-92 NSCLC
M14 melanoma = test system: M14 melanoma
M19-MEL melanoma = test system: M19-MEL melanoma
NCI/ADR-RES ovarian = test system: NCI/ADR-RES ovarian
OVCAR-8 ovarian = test system: OVCAR-8 ovarian
SNB-75 CNS = test system: SNB-75 CNS
T-47D breast = test system: T-47D breast
U251 CNS = test system: U251 CNS

Nc1ccc2c(c1)CN1C(=O)c3ccccc3C1=N2
GI50 (COLO 205 colon): 33.9 µM | TGI (COLO 205 colon): > 125 µM | TGI (DLD-1 colon): > 125 µM | GI50 (HOP-92 NSCLC): 47.9 µM | TGI (HOP-92 NSCLC): 110 µM | TGI (M14 melanoma): > 125 µM | GI50 (M19-MEL melanoma): 54.8 µM | TGI (M19-MEL melanoma): > 125 µM | TGI (NCI/ADR-RES ovarian): > 125 µM | TGI (OVCAR-8 ovarian): 115 µM | TGI (SNB-75 CNS): 69.5 µM | TGI (T-47D breast): > 125 µM | GI50 (U251 CNS): 35.7 µM | TGI (U251 CNS): 121 µM

CCN1CC2(C)CC[C@@H](OC)C34[C@@H]2[C@H](OC(C)=O)C2(OCO[C@@]25C[C@H](OC)C2C[C@]3(O)[C@@H]5[C@H]2O)[C@H]14
TGI (COLO 205 colon): > 100 µM | TGI (DLD-1 colon): > 100 µM | TGI (HOP-92 NSCLC): > 100 µM | TGI (M14 melanoma): > 100 µM | TGI (M19-MEL melanoma): > 100 µM | TGI (OVCAR-8 ovarian): > 100 µM | TGI (SNB-75 CNS): > 100 µM | TGI (U251 CNS): > 100 µM

CCC1NCC(=O)c2c1[nH]c1ccccc21 (stereo not drawn)
TGI (COLO 205 colon): > 100 µM | TGI (DLD-1 colon): > 100 µM | TGI (HOP-92 NSCLC): > 100 µM | TGI (M14 melanoma): > 100 µM | TGI (M19-MEL melanoma): > 100 µM | TGI (OVCAR-8 ovarian): > 100 µM | TGI (SNB-75 CNS): > 100 µM | TGI (U251 CNS): > 100 µM

COC(=O)C1CCC(=NC2c3ccccc3-c3ccccc32)N1 (stereo not drawn)
TGI (COLO 205 colon): > 100 µM | TGI (DLD-1 colon): > 100 µM | TGI (HOP-92 NSCLC): 76.6 µM | TGI (M14 melanoma): > 100 µM | TGI (M19-MEL melanoma): > 100 µM | TGI (OVCAR-8 ovarian): > 100 µM | TGI (SNB-75 CNS): > 100 µM | TGI (U251 CNS): > 100 µM

C/C(=N\NC(=S)N1CCC(C2CCN(C(=S)N/N=C(\C)c3ccccn3)CC2)CC1)c1ccccn1
TGI (COLO 205 colon): > 100 µM | TGI (DLD-1 colon): > 100 µM | TGI (HOP-92 NSCLC): > 100 µM | TGI (M14 melanoma): > 100 µM | TGI (M19-MEL melanoma): > 100 µM | TGI (OVCAR-8 ovarian): > 100 µM | TGI (SNB-75 CNS): 67.4 µM | TGI (U251 CNS): > 100 µM

O=C1c2cccc3cccc(c23)C(=O)N1CCCN1CCN(CCCN2C(=O)c3cccc4cccc(c34)C2=O)CC1
TGI (COLO 205 colon): > 100 µM | TGI (DLD-1 colon): > 100 µM | TGI (HOP-92 NSCLC): > 100 µM | TGI (M14 melanoma): > 100 µM | TGI (M19-MEL melanoma): > 100 µM | TGI (OVCAR-8 ovarian): > 100 µM | TGI (SNB-75 CNS): > 100 µM | TGI (U251 CNS): > 100 µM

Cc1c(-c2coc(-c3ccc(Cl)cc3)n2)c(=O)n(-c2ccccc2)n1C
TGI (COLO 205 colon): > 100 µM | TGI (DLD-1 colon): > 100 µM | TGI (HOP-92 NSCLC): > 100 µM | TGI (M14 melanoma): > 100 µM | TGI (M19-MEL melanoma): > 100 µM | TGI (OVCAR-8 ovarian): > 100 µM | TGI (SNB-75 CNS): > 100 µM | TGI (U251 CNS): > 100 µM

COc1cc(C2c3cc4c(cc3[C@@H](Nc3cccc(O)c3)C3COC(=O)[C@H]23)OCO4)cc(OC)c1O (stereo partly drawn)
TGI (COLO 205 colon): 23.1 µM | TGI (DLD-1 colon): 40.9 µM | GI50 (HOP-92 NSCLC): 0.458 µM | TGI (HOP-92 NSCLC): 0.951 µM and 9.4 µM | GI50 (M14 melanoma): 0.991 µM | TGI (M14 melanoma): 14.1 µM | GI50 (M19-MEL melanoma): 0.747 µM | TGI (M19-MEL melanoma): 18.9 µM | TGI (NCI/ADR-RES ovarian): 21.5 µM | GI50 (OVCAR-8 ovarian): 0.769 µM | TGI (OVCAR-8 ovarian): 11.4 µM | GI50 (SNB-75 CNS): 0.623 µM | TGI (SNB-75 CNS): 14.1 µM | TGI (T-47D breast): 53.2 µM | GI50 (U251 CNS): 0.732 µM | TGI (U251 CNS): 9.22 µM
